Assays:
Erigeron canadensis [1] = assay: Herbicidal activity against compound-resistant Conyza canadensis (horseweed) isolate 1 under greenhouse condition at 1.68 kg ae/ha measured 7 days post treatment relative to control; type: functional
Erigeron canadensis [2] = assay: Herbicidal activity against compound-resistant Conyza canadensis (horseweed) isolate 2 under greenhouse condition at 0.84 kg ae/ha measured 14 days post treatment relative to control; type: functional
Erigeron canadensis [3] = assay: Herbicidal activity against compound-sensitive Conyza canadensis (horseweed) under greenhouse condition assessed as fresh weight at 1.25 kg ae/ha measured 21 days post treatment relative to untreated control
Erigeron canadensis [4] = assay: Herbicidal activity against compound-sensitive Conyza canadensis (horseweed) under greenhouse condition assessed as fresh weight at 2.52 kg ae/ha measured 21 days post treatment relative to untreated control
Erigeron canadensis [5] = assay: Herbicidal activity against compound-sensitive Conyza canadensis (horseweed) under greenhouse condition at 1.25 kg ae/ha measured 7 days post treatment relative to control; type: functional
Erigeron canadensis [6] = assay: Herbicidal activity against compound-resistant Conyza canadensis (horseweed) isolate 1 under greenhouse condition at 9 kg ae/ha measured 21 days post treatment relative to control; type: functional
Erigeron canadensis [7] = assay: Herbicidal activity against compound-resistant Conyza canadensis (horseweed) isolate 1 under greenhouse condition assessed as fresh weight at 3.36 kg ae/ha measured 21 days post treatment relative to untreated control
Erigeron canadensis [8] = assay: Herbicidal activity against compound-resistant Conyza canadensis (horseweed) isolate 1 under greenhouse condition at 1.25 kg ae/ha measured 14 days post treatment relative to control; type: functional
Erigeron canadensis [9] = assay: Herbicidal activity against Conyza canadensis (horseweed) under greenhouse condition at 0.05 kg ae/ha measured 7 days post treatment relative to control; type: functional
Erigeron canadensis [10] = assay: Herbicidal activity against compound-resistant Conyza canadensis (horseweed) isolate 1 under greenhouse condition at 2.52 kg ae/ha measured 21 days post treatment relative to control; type: functional
Erigeron canadensis [11] = assay: Herbicidal activity against compound-resistant Conyza canadensis (horseweed) isolate 2 under greenhouse condition at 9 kg ae/ha measured 21 days post treatment relative to control; type: functional
Erigeron canadensis [12] = assay: Herbicidal activity against compound-resistant Conyza canadensis (horseweed) isolate 1 under greenhouse condition assessed as fresh weight at 1.68 kg ae/ha measured 21 days post treatment relative to untreated control
Erigeron canadensis [13] = assay: Herbicidal activity against compound-sensitive Conyza canadensis (horseweed) under greenhouse condition at 1.25 kg ae/ha measured 14 days post treatment relative to control; type: functional
Erigeron canadensis [14] = assay: Herbicidal activity against compound-sensitive Conyza canadensis (horseweed) under greenhouse condition at 3.36 kg ae/ha measured 7 days post treatment relative to control; type: functional
Erigeron canadensis [15] = assay: Herbicidal activity against compound-resistant Conyza canadensis (horseweed) isolate 2 under greenhouse condition at 9 kg ae/ha measured 7 days post treatment relative to control; type: functional
Erigeron canadensis [16] = assay: Herbicidal activity against compound-resistant Conyza canadensis (horseweed) isolate 2 under greenhouse condition at 3.36 kg ae/ha measured 21 days post treatment relative to control; type: functional
Erigeron canadensis [17] = assay: Herbicidal activity against compound-resistant Conyza canadensis (horseweed) isolate 2 under greenhouse condition at 1.68 kg ae/ha measured 7 days post treatment relative to control; type: functional
Erigeron canadensis [18] = assay: Herbicidal activity against compound-sensitive Conyza canadensis (horseweed) under greenhouse condition assessed as fresh weight at 1.68 kg ae/ha measured 21 days post treatment relative to untreated control
Erigeron canadensis [19] = assay: Herbicidal activity against compound-resistant Conyza canadensis (horseweed) isolate 1 under greenhouse condition at 2.52 kg ae/ha measured 14 days post treatment relative to control; type: functional
Erigeron canadensis [20] = assay: Herbicidal activity against compound-resistant Conyza canadensis (horseweed) isolate 2 under greenhouse condition at 0.84 kg ae/ha measured 7 days post treatment relative to control; type: functional
Erigeron canadensis [21] = assay: Herbicidal activity against compound-sensitive Conyza canadensis (horseweed) under greenhouse condition at 9 kg ae/ha measured 14 days post treatment relative to control; type: functional
Erigeron canadensis [22] = assay: Herbicidal activity against compound-resistant Conyza canadensis (horseweed) isolate 1 under greenhouse condition at 1.68 kg ae/ha measured 14 days post treatment relative to control; type: functional
Erigeron canadensis [23] = assay: Herbicidal activity against compound-resistant Conyza canadensis (horseweed) isolate 2 under greenhouse condition at 3.36 kg ae/ha measured 7 days post treatment relative to control; type: functional
Erigeron canadensis [24] = assay: Herbicidal activity against compound-sensitive Conyza canadensis (horseweed) under greenhouse condition at 0.45 kg ae/ha measured 21 days post treatment relative to control; type: functional
Erigeron canadensis [25] = assay: Herbicidal activity against compound-resistant Conyza canadensis (horseweed) isolate 2 under greenhouse condition at 0.45 kg ae/ha measured 14 days post treatment relative to control; type: functional
Erigeron canadensis [26] = assay: Herbicidal activity against compound-resistant Conyza canadensis (horseweed) isolate 2 under greenhouse condition at 3.36 kg ae/ha measured 14 days post treatment relative to control; type: functional
Erigeron canadensis [27] = assay: Herbicidal activity against compound-resistant Conyza canadensis (horseweed) isolate 1 under greenhouse condition at 3.36 kg ae/ha measured 14 days post treatment relative to control; type: functional
Erigeron canadensis [28] = assay: Herbicidal activity against compound-sensitive Conyza canadensis (horseweed) under greenhouse condition at 2.52 kg ae/ha measured 21 days post treatment relative to control; type: functional
Erigeron canadensis [29] = assay: Herbicidal activity against compound-sensitive Conyza canadensis (horseweed) under greenhouse condition at 9 kg ae/ha measured 7 days post treatment relative to control; type: functional
Erigeron canadensis [30] = assay: Herbicidal activity against compound-resistant Conyza canadensis (horseweed) isolate 2 under greenhouse condition at 0.45 kg ae/ha measured 7 days post treatment relative to control; type: functional
Erigeron canadensis [31] = assay: Herbicidal activity against compound-resistant Conyza canadensis (horseweed) isolate 2 under greenhouse condition assessed as fresh weight at 1.68 kg ae/ha measured 21 days post treatment relative to untreated control
Erigeron canadensis [32] = assay: Herbicidal activity against compound-sensitive Conyza canadensis (horseweed) under greenhouse condition at 0.84 kg ae/ha measured 7 days post treatment relative to control; type: functional
Erigeron canadensis [33] = assay: Herbicidal activity against compound-resistant Conyza canadensis (horseweed) isolate 2 under greenhouse condition at 1.25 kg ae/ha measured 14 days post treatment relative to control; type: functional
Erigeron canadensis [34] = assay: Herbicidal activity against compound-sensitive Conyza canadensis (horseweed) under greenhouse condition at 1.68 kg ae/ha measured 21 days post treatment relative to control; type: functional
Erigeron canadensis [35] = assay: Herbicidal activity against compound-sensitive Conyza canadensis (horseweed) under greenhouse condition at 1.25 kg ae/ha measured 21 days post treatment relative to control; type: functional
Erigeron canadensis [36] = assay: Herbicidal activity against compound-resistant Conyza canadensis (horseweed) isolate 2 under greenhouse condition at 1.25 kg ae/ha measured 7 days post treatment relative to control; type: functional
Erigeron canadensis [37] = assay: Herbicidal activity against compound-resistant Conyza canadensis (horseweed) isolate 2 under greenhouse condition at 0.84 kg ae/ha measured 21 days post treatment relative to control; type: functional

O=C(O)CNCP(=O)(O)O [GLYPHOSATE]
Activity (Erigeron canadensis [1]): 40% | Activity (Erigeron canadensis [2]): 14% | level, % of control (Erigeron canadensis [3]): 19% | level, % of control (Erigeron canadensis [4]): 2% | Activity (Erigeron canadensis [5]): 60% | Activity (Erigeron canadensis [6]): 80% | level, % of control (Erigeron canadensis [7]): 7% | Activity (Erigeron canadensis [8]): 18% | Activity (Erigeron canadensis [9]): 14% | Activity (Erigeron canadensis [10]): 59% | Activity (Erigeron canadensis [11]): 89% | level, % of control (Erigeron canadensis [12]): 36% | Activity (Erigeron canadensis [13]): 92% | Activity (Erigeron canadensis [14]): 85% | Activity (Erigeron canadensis [15]): 73% | Activity (Erigeron canadensis [16]): 75% | Activity (Erigeron canadensis [17]): 50% | level, % of control (Erigeron canadensis [18]): 1% | Activity (Erigeron canadensis [19]): 45% | Activity (Erigeron canadensis [20]): 23% | Activity (Erigeron canadensis [21]): 98% | Activity (Erigeron canadensis [22]): 40% | Activity (Erigeron canadensis [23]): 60% | Activity (Erigeron canadensis [24]): 74% | Activity (Erigeron canadensis [25]): 13% | Activity (Erigeron canadensis [26]): 69% | Activity (Erigeron canadensis [27]): 58% | Activity (Erigeron canadensis [28]): 99% | Activity (Erigeron canadensis [29]): 90% | Activity (Erigeron canadensis [30]): 13% | level, % of control (Erigeron canadensis [31]): 49% | Activity (Erigeron canadensis [32]): 58% | Activity (Erigeron canadensis [33]): 15% | Activity (Erigeron canadensis [34]): 99% | Activity (Erigeron canadensis [35]): 90% | Activity (Erigeron canadensis [36]): 33% | Activity (Erigeron canadensis [37]): 24%

From ChEMBL document CHEMBL3045777, “Response of selected horseweed (Conyza canadensis (L.) Cronq.) populations to glyphosate” (2004)
